In patent US20210395239A1 (Hoffmann-La Roche Inc., priority 2018, published 2021):
pIC50: −log10 of the molar value.

target: T1, hTLR9 (Homo sapiens, UniProt Q9NR96); experiment: HEK293-Blue-hTLR-9 cells assay (SEAP reporter, ODN2006 stimulation); type: cell-based; design: host or cells: HEK293 (HEK-Blue hTLR9); details: HEK293-Blue-hTLR9 cells, ODN2006, 20 hrs; read-out: HEK/hTLR9 IC50
T1 sequence (Q9NR96 26-1032): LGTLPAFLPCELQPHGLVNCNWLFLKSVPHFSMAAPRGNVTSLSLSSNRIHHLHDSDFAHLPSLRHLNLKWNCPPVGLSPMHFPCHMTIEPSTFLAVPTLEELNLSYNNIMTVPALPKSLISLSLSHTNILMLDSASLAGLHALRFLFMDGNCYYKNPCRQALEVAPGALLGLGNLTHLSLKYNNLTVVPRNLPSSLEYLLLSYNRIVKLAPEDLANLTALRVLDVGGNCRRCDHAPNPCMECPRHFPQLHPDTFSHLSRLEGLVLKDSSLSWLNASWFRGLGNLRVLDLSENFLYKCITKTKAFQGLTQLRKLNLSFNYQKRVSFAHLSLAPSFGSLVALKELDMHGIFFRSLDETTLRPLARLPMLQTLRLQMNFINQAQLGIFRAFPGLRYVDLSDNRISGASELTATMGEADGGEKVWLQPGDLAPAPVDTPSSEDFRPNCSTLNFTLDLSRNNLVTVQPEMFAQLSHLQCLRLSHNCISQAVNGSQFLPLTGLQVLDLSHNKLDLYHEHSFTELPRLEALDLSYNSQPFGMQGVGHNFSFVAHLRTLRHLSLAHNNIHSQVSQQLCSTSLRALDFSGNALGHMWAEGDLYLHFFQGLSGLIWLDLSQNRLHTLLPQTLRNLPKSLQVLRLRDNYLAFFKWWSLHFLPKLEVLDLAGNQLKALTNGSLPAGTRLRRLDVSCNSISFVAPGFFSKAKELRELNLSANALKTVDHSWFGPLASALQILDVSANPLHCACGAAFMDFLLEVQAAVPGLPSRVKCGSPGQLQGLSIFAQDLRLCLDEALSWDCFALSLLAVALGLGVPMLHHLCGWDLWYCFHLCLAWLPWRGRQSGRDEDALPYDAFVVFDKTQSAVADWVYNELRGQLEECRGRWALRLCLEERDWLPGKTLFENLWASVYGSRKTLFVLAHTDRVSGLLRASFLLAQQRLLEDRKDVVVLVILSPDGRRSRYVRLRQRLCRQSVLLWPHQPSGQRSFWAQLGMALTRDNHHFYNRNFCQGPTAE
In short: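 Antagonism read as lowered SEAP reporter absorbance (620–655 nm, QUANTI-Blue, 2 h, 37 °C) in supernatants. Before that, ODN2006-stimulated HEK293-Blue cells stably expressing human TLR9 were exposed to compound dilutions at 1% final DMSO for 20 h at 37 °C.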

`CO[C@H]1CN(c2nc(C)cc(N3CCN(C[C@H]4CN(c5ccc(C#N)c6ncccc56)C[C@@H](C)O4)CC3)n2)CC1N` (relative stereo) [Example 59, 5-[(2R,6S)-2-methyl-6-[[4-[6-methyl-2-[trans-3-amino-4-methoxy-pyrrolidin-1-yl]pyrimidin-4-yl]piperazin-1-yl]methyl]morpholin-4-yl]quinoline-8-carbonitrile] and `Cc1cc(N2CCN(C[C@H]3CN(c4ccc(C#N)c5ncccc45)C[C@@H](C)O3)CC2)nc(N2CC(N)C(F)C2)n1` (stereo in doubt) [Example 54, 5-[(2S,6R)-2-[[4-[2-[(3S,4R)-3-amino-4-fluoro-pyrrolidin-1-yl]-6-methyl-pyrimidin-4-yl]piperazin-1-yl]methyl]-6-methyl-morpholin-4-yl]quinoline-8-carbonitrile] are within 0.2 log units of each other in pIC50: 7.49 for the first, 7.47 for the second.

First: COC1CNC[C@H]1Nc1cccc(N2CCN(C[C@H]3CN(c4ccc(C#N)c5ncccc45)C[C@@H](C)O3)CC2)n1 (stereo in doubt) [Example 39, 5-[(2S,6R)-2-[[4-[6-[[(3R,4R)-4-methoxypyrrolidin-3-yl]amino]-2-pyridyl]piperazin-1-yl]methyl]-6-methyl-morpholin-4-yl]quinoline-8-carbonitrile]
Second: COC1CN(c2nccc(N3CCN(C[C@H]4CN(c5ccc(C#N)c6ncccc56)C[C@@H](C)O4)CC3)n2)C[C@H]1N (stereo in doubt) [Example 52, 5-[(2S,6R)-2-[[4-[2-[(3R,4R)-3-amino-4-methoxy-pyrrolidin-1-yl]pyrimidin-4-yl]piperazin-1-yl]methyl]-6-methyl-morpholin-4-yl]quinoline-8-carbonitrile]
The pIC50 of the first is 0.51 log units lower: 6.98 for the first, 7.49 for the second. The second is the more potent here.

Going from `CO[C@H]1CN(c2nccc(N3CCN(C[C@H]4CN(c5ccc(C#N)c6ncccc56)C[C@@H](C)O4)CC3)n2)CC1N` (stereo in doubt) [Example 53, 5-[(2S,6R)-2-[[4-[2-[(3S,4S)-3-amino-4-methoxy-pyrrolidin-1-yl]pyrimidin-4-yl]piperazin-1-yl]methyl]-6-methyl-morpholin-4-yl]quinoline-8-carbonitrile] to `C[C@@H]1CN(c2ccc(C#N)c3ncccc23)C[C@H](CN2CCN(c3ccc(N4CCNCC4)cn3)CC2)O1` [Example 8, 5-[(2R,6S)-2-methyl-6-[[4-(5-piperazin-1-yl-2-pyridyl)piperazin-1-yl]methyl]morpholin-4-yl]quinoline-8-carbonitrile], the pIC50 falls from 7.49 to 7.03 (0.46 log units).

`COC1CN(c2ccc(C3CN(C[C@H]4CN(c5cc(=O)n(C)c6ncccc56)C[C@@H](C)O4)C3)cc2)C[C@H]1N` (stereo in doubt) [Example 172, 4-[(2S,6R)-2-[[3-[4-[(3R,4R)-3-amino-4-methoxy-pyrrolidin-1-yl]phenyl]azetidin-1-yl]methyl]-6-methyl-morpholin-4-yl]-1-methyl-1,8-naphthyridin-2-one] and `C[C@@H]1CN(c2cc(=O)n(C)c3ncccc23)C[C@H](CN2CC(c3ccc(N4CC(F)[C@H](N)C4)cc3)C2)O1` (stereo in doubt) [Example 174, 4-[(2S,6R)-2-[[3-[4-[(3R,4R)-3-amino-4-fluoro-pyrrolidin-1-yl]phenyl]azetidin-1-yl]methyl]-6-methyl-morpholin-4-yl]-1-methyl-1,8-naphthyridin-2-one] are within 0.2 log units of each other in pIC50: 7.24 for the first, 7.07 for the second.

Going from `C[C@@H]1CN(c2ccc(C#N)n3ncc(F)c23)C[C@H](CN2CCN(c3ccc(C4CNCCO4)cc3F)CC2)O1` (stereo in doubt) [Example 183, 3-fluoro-4-[(2S,6R)-2-[[4-[2-fluoro-4-[(2S)-morpholin-2-yl]phenyl]piperazin-1-yl]methyl]-6-methyl-morpholin-4-yl]pyrazolo[1,5-a]pyridine-7-carbonitrile] to `C[C@@H]1CN(c2ccc(C#N)c3ncccc23)C[C@H](CN2CCN(c3cncc(N4CCNCC4)c3)CC2)O1` [Example 7, 5-[(2R,6S)-2-methyl-6-[[4-(5-piperazin-1-yl-3-pyridyl)piperazin-1-yl]methyl]morpholin-4-yl]quinoline-8-carbonitrile], the pIC50 rises from 6.92 to 7.29 (0.37 log units).
